Results as given in PMC10012172, “Chimeric Peptidomimetic Antibiotic Efficiently Neutralizes Lipopolysaccharides (LPS) and Bacteria-Induced Activation of RAW Macrophages” (ACS Infectious Diseases, 2023).
≈ marks a conversion by molar mass, not a printed value. Where a SMILES comes first, the peptide text is derived from it. Bridges are numbered along the chain shown (N, C = ends). Roman numbers before positions name the chains, in order. [ ]: non-standard residue; d: D form. Tle = CC(C)(C)[C@H](N)C(=O)O; dDab = NCC[C@@H](N)C(=O)O; hSer = N[C@@H](CCO)C(=O)O; Dab = NCC[C@H](N)C(=O)O

Assays:
[1] = test system: E. coli O111:B4 LPS stimulated RAW264.7 macrophages; assay: Nitric oxide inhibition assay (Griess), E. coli O111:B4 LPS; type: cell-based; settings: 0–5 μM peptide
Method: (§1) Figure 3 Nitric oxide inhibition in LPS stimulated RAW264.7 by peptide antibiotics. RAW264.7 cells were stimulated with smooth type LPSs (A) E. coli O111:B4 LPS and (B) P. aeruginosa LPS and rough type LPS (C) E. coli K-12 LPS in the presence of different concentrations of peptides: CPA, murepavadin, MHM, PMB, and PMBN. NO production was measured by Griess assay. Shown are the mean ± SEM of three independent experiments. (D) Schematic diagram of the general structure of lipopolysaccharides. It consists of three main subunits: lipid A, the core region, and the O-antigen. Lipid A and the core-region form rough (R)-type LPS. Lipid A, the core-region, and the O-antigen together form smooth (S)-type LPS.
(§2) RAW264.7 cells were seeded (5 × 10^4 cells/well) in a 96-well plate and left at 37 °C for overnight adherence. Then, cells were stimulated with […] types of LPS: 20 ng/mL LPS originating from E. coli O111:B4 (LPS-EB, InvivoGen), 50 ng/mL LPS from P. aeruginosa (PA-10 LPS, Sigma -Aldrich), and 5 ng/mL LPS from E. coli K-12 (LPS-EK, InvivoGen) in the presence of 0–5 μM peptides in DMEM for 24 h. After incubation, the nitrite content (corresponding to nitric oxide produced but quickly oxidized in watery solutions to nitrite) in the supernatant was measured using the Griess assay.[28]

[2] = test system: P. aeruginosa 10 LPS stimulated RAW264.7 macrophages; assay: Nitric oxide inhibition assay (Griess), P. aeruginosa 10 LPS; type: cell-based; settings: 0–5 μM peptide
Method: as §1, §2

[3] = test system: E. coli K-12 LPS stimulated RAW264.7 macrophages; assay: Nitric oxide inhibition assay (Griess), E. coli K-12 LPS; type: cell-based; settings: 0–5 μM peptide
Method: as §1, §2

[4] = test system: E. coli O111:B4 LPS stimulated RAW264.7 macrophages; assay: IL-10 release ELISA in LPS stimulated macrophages; type: cell-based; settings: 20 ng/mL E. coli O111:B4 LPS, 24 h
Method: (§3) Figure 4 Peptides modulation of cytokine expression in RAW264.7 cells stimulated with LPS. RAW macrophages were stimulated with 20 ng/mL E. coli LPS in the presence of different concentrations of peptide antibiotics. (A) TNF-α and (B) IL-10 release was measured by ELISA in duplicates. Shown are the mean ± SEM of three independent experiments.
as §2
(§4) A sandwich ELISA was used to measure TNF-α and IL-10 concentrations in the supernatant of the same treatment (24 h) used for nitrite measurement, using ELISA Duoset kits (R&D systems, Minneapolis, MN) according to the manufacturer’s protocol.

[5] = test system: E. coli O111:B4 LPS stimulated RAW264.7 macrophages; assay: TNF-α release ELISA in LPS stimulated macrophages; type: cell-based; settings: 20 ng/mL E. coli O111:B4 LPS, 24 h
Method: as §3, §2, §4

[6] = test system: RAW264.7 macrophages stimulated with treated P. aeruginosa; assay: Silent killing: stimulation of macrophages with nonviable bacteria (TNF-α ELISA); type: cell-based; settings: bacteria 1 × 10^6 CFU/mL treated with 20 μM peptide 1 h at 37 °C, RAW264.7 2 h, three independent experiments
Method: Figure 7 (A) Determination of macrophage activation in response to viable and nonviable bacteria. P. aeruginosa was treated with gentamicin, heat treatment, CATH-2 (control), CPA, murepavadin, MHM, PMB, or PMBN (20 μM of each) and subsequently added to RAW264.7 macrophages. Production of TNF-α was measured using ELISA after 2 h of treatment. (B) Viability of P. aeruginosa after treatment was checked by plating on TSA plates. Data is plotted as the mean ± SEM of three independent experiments. Significant differences were determined by ordinary one-way ANOVA (Tukey’s multiple comparison test).
RAW264.7 cells were seeded (7.5 × 10^4 cells/well) as described above. P. aeruginosa (diluted to 1 × 10^6 CFU/mL in DMEM) was treated separately with heat (1 h at 90 °C), 1 mg/mL gentamicin (1 h at 37 °C), 20 μM CPA (1 h at 37 °C), 20 μM PMB (1 h at 37 °C), 20 μM murepavadin (1 h at 37 °C), 20 μM MHM (1 h at 37 °C), 20 μM CATH-2 (1 h at 37 °C), and DMEM only (untreated sample) (1 h at 4 °C). After treatment, the bacteria were added to the RAW264.7 cells for 2 h of incubation at 37 °C. After that, TNF-α production was determined in the supernatant by ELISA.

[7] = test system: Escherichia coli (clinical isolate); type: cell-based
Method: (§5) Figure 2 Determination of MBC values for (A) E. coli and (B) P. aeruginosa. Surviving bacterial colonies were detected after incubation with tested peptides for 3 h in MHB.
(§6) Bacterial strains used in this study were clinical isolates of Escherichia coli and Pseudomonas aeruginosa provided by Utrecht University Medical Center, Department of Medical Microbiology, Utrecht, The Netherlands. Both strains were cultured in Mueller Hinton broth (MHB) (Millipore, Sigma-Aldrich).
(§7) Logarithmic growth phase of an o/n bacterial culture was obtained by diluting it 1:100 in MHB and then incubating it for 3 h at 37 °C while shaking. After that, the OD620 of the bacterial suspension was measured and the bacterial solution was diluted to 2 × 10^6 colony forming units/mL (CFU/mL). Bacteria and peptides in MHB were mixed 1:1 (v/v) and incubated for 3 h at 37 °C in a polypropylene round-bottom 96 well-plate (Corning Costar, Glendale, AZ). Subsequently, 10-fold dilutions were made and plated out on Tryptone Soy Agar (TSA) plates and incubated for 24 h at 37 °C to count colonies.

[8] = test system: Pseudomonas aeruginosa (clinical isolate); type: cell-based; settings: 3 h
Method: as §5, §6, §7

[9] = test system: E. coli O111:B4 LPS; assay: Isothermal titration calorimetry (ITC) of LPS binding; settings: 30 μM peptide, 200 μM LPS in 50% PBS, 37 °C, representative of two measurements
Method: Figure 6 (A) Binding profile of LPS and the peptides using ITC. Binding signatures (ΔG, ΔH. and −TΔS) plotted for binding events of LPS with peptides. (B) Spectra of the interaction between LPS and peptides. Murepavadin, PMB, MHM, PMBN, and CPA (30 μM) were titrated against 200 μM E. coli O111:B4 LPS, and heat rates were recorded. Shown is a representative of two measurements.
ITC measurements were performed in a low volume NanoITC (TA Instruments-Waters LLC, New Castle, DE). Two hundred micromolar LPS (from E. coli O111:B4) was prepared in 50% PBS. Peptides of 30 μM concentration were prepared in identical buffer. Three hundred microliters of the peptide solution was added to the chamber (chamber volume is 169 μL, so the rest of the volume flows out and rests around the chamber), and 50 μL of LPS was added to the syringe. At 37 °C, 2 μL of LPS solution was injected into the chamber every 300 s, except the first injection, which consists of 0.96 μL. The experiments were performed at 37 °C while stirring at 300 rpm. The data was analyzed with the NanoAnalyze Software (TA Instruments, Asse, Belgium).

`CC(C)C[C@@H]1NC(=O)[C@@H](Cc2ccccc2)NC(=O)[C@H](CCN)NC(=O)[C@@H](NC(=O)[C@H](CCN)NC(=O)[C@@H](NC(=O)[C@H](CCN)NC(=O)CC[C@@H]2NC(=O)[C@H](CCN)NC(=O)[C@H](Cc3ccc(O)cc3)NC(=O)[C@H]([C@@H](C)O)NC(=O)[C@H](C(C)C)NC(=O)[C@@H]3CCCN3C(=O)[C@@H](C)NC(=O)[C@H](CO)NC(=O)[C@H](C)NC(=O)[C@H](C(C)(C)C)NC(=O)[C@H](CCO)NC(=O)[C@H](Cc3c[nH]c4ccccc34)NC(=O)[C@H](CCO)NC(=O)[C@@H](CCN)NC2=O)[C@@H](C)O)CCNC(=O)[C@H]([C@@H](C)O)NC(=O)[C@H](CCN)NC(=O)[C@H](CCN)NC1=O` [CPA] (I: cyclo([dDab][hSer]W[hSer][Tle]AS[dA]PVTY[Dab]E) / II: [Dab]T[Dab][Dab][Dab][dF]L[Dab][Dab]T; amide I:14-II:N (inferred); lactam II:4-II:C (inferred); ring closure inferred) was tested, and the “concentration that completely neutralized E. coli O111:B4 LPS (nitric oxide production)” value ([1]; 20 ng/mL LPS, 24 h in DMEM, Griess assay) was 20 nM, the “inhibition of LPS-induced nitric oxide production (in words)” value ([1]; smooth E. coli O111:B4 LPS 20 ng/mL, 24 h) was “dose-dependently active” and the “concentration that almost completely neutralized P. aeruginosa 10 LPS (nitric oxide production)” value ([2]; 50 ng/mL LPS, 24 h in DMEM, Griess assay) was 20 nM. The “inhibition of LPS-induced nitric oxide production (in words)” value ([2]; smooth P. aeruginosa 10 LPS 50 ng/mL, 24 h) was “dose-dependently active”, the “concentration that neutralized E. coli K-12 LPS (nitric oxide production)” value ([3]; 5 ng/mL rough LPS, 24 h in DMEM, Griess assay) was 5 µM and the “inhibition of LPS-induced nitric oxide production (in words)” value ([3]; rough E. coli K-12 LPS 5 ng/mL, 24 h) was “dose-dependently active”. The “inhibition of IL-10 release (in words)” value [4] was “sharply decreased the TNF-α and IL-10 release by RAW264.7 macrophages at a concentration of 5 nM”, the “inhibition of TNF-α release (in words)” value [5] was “sharply decreased the TNF-α and IL-10 release by RAW264.7 macrophages at a concentration of 5 nM” and the “macrophage activation (TNF-α) by peptide-treated P. aeruginosa compared to viable untreated bacteria” value [6] was “significantly reduced immune response”. For the same molecule, the “decrease in viable E. coli” value ([7]; at 1.25 μM peptide, from starting density of 10^6 CFU/mL, 3 h in MHB) was 2 log, the “MBC (complete killing) against E. coli” value ([7]; clinical isolate, 3 h) was 10 µM (≈ 25.7 µg/mL) and the “MBC (complete killing) against P. aeruginosa” value [8] was 2.5 µM (≈ 6.41 µg/mL). For the same molecule, the Kd [9] was 7.8 µM.
